The target of one data set is T1, recombinant human FAAH (Homo sapiens, UniProt O00519).
T1 sequence (O00519 1-579): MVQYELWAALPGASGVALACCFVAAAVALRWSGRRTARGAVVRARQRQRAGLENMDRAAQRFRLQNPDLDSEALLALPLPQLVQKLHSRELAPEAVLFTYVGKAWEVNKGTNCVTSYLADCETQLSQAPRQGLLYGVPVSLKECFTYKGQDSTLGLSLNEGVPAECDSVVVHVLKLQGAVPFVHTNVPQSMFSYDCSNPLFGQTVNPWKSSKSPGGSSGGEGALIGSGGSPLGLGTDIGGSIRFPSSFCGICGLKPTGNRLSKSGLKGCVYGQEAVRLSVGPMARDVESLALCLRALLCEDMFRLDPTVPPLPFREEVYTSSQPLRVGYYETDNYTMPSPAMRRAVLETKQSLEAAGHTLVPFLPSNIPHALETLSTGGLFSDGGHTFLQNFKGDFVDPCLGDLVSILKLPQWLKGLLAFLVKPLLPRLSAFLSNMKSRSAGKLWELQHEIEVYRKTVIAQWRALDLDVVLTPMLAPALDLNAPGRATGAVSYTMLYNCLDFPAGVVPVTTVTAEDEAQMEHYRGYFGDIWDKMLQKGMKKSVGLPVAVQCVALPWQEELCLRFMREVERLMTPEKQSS
The data set is described as follows: FAAH inhibition, 30 min preincubation, AMC substrate. It is filed as biochemical. Conditions: 30 min preincubation with recombinant human FAAH and AMC; read-out: Apparent IC50s.

Another data set deals with T2, FAAH (Mus musculus, UniProt O08914).
T2 construct: from tissue; host or cells: living mice; plasma, liver and brain sampled
T2 sequence (O08914 1-579): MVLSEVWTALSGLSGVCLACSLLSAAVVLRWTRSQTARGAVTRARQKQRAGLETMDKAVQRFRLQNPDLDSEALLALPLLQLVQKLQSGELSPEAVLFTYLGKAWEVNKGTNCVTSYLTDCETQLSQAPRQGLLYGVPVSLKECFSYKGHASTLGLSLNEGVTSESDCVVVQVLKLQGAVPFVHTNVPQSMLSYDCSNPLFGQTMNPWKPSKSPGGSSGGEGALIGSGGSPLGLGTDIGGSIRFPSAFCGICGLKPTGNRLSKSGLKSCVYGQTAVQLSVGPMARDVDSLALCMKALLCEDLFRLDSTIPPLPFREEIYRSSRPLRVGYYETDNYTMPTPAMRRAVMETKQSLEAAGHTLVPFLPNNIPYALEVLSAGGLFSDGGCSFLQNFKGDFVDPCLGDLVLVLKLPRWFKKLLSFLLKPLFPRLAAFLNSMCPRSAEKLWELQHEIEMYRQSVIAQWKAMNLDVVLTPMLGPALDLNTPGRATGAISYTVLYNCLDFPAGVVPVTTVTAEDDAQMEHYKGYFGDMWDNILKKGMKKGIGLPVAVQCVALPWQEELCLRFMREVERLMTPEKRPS
In words: tissue distribution after co-dosing prodrug ABX-002 with or without PFI or GFI. The class given is in vivo, mice. As to conditions: for Distribution: peripheral or global FAAH inhibitor. The protocol: The ability of globally-penetrant and peripherally-restricted FAAH inhibitors (GFI & PFI, respectively) to alter distribution of ABX-002 and ABX-002A was assessed.
Table 5 depicts the inhibition of active metabolite (LL-650177 or PF-044578454) in AUC in the plasma, liver, and brain after prodrug (ABX-002) co-dosing. Tissue distribution studies in mice confirm global & peripheral inhibition of FAAH.

The structures appear in SMILES notation. pIC50: −log10 of the molar value.

With `O=C(Nc1cccnn1)N1CCC(=Cc2cccc(Oc3ccc(C(F)(F)F)cn3)c2)CC1` [PF-04457845], the pIC50 at recombinant human FAAH is 8.52. For the same compound, the “inhibition of active metabolite AUC, Brain” value at FAAH (ABX-002A AUC after ABX-002 co-dosing, mice, brain) was 83%. Further, the “inhibition of active metabolite AUC, Liver” value at FAAH (ABX-002A AUC after ABX-002 co-dosing, mice, liver) worked out at 94%. In addition, the “inhibition of active metabolite AUC, Plasma” value at FAAH (ABX-002A AUC after ABX-002 co-dosing, mice, plasma) came to 94%. The Distribution result on FAAH is reported as “Global”.

As for `NC(=O)c1cccc(-c2cc(OC(=O)NC3CCCCC3)ccc2O)c1` [URB937], the pIC50 on recombinant human FAAH was 7.16. Besides, the Distribution result at FAAH was “Peripheral”.
